ChEMBL document CHEMBL3621193, “New arylalkanones from Horsfieldia macrobotrys, effective antidiabetic agents concomitantly inhibiting α-glucosidase and free radicals” (Bioorg Med Chem Lett, 2015)

Tests used:
[1] = Inhibition of baker's yeast alpha-glucosidase type-1 using p-nitrophenyl-alpha-D-glucopyranoside as substrate preincubated for 30 mins followed by substrate addition measured after 20 mins by microplate reader analysis; parameters: species or system Saccharomyces cerevisiae
[2] = Antioxidant activity assessed as DPPH radical scavenging activity incubated for 30 mins in dark condition by spectrophotometric analysis; type: physicochemical; settings: 0.5 h
[3] = target: T1, Sucrase-isomaltase, intestinal (Rattus norvegicus, UniProt P23739); assay: Non-competitive inhibition of rat intestinal Sucrase using sucrose as substrate assessed as glucose release after 40 mins by Lineweaver-Burk plot analysis
T1 sequence (P23739 1-1013 limits assumed): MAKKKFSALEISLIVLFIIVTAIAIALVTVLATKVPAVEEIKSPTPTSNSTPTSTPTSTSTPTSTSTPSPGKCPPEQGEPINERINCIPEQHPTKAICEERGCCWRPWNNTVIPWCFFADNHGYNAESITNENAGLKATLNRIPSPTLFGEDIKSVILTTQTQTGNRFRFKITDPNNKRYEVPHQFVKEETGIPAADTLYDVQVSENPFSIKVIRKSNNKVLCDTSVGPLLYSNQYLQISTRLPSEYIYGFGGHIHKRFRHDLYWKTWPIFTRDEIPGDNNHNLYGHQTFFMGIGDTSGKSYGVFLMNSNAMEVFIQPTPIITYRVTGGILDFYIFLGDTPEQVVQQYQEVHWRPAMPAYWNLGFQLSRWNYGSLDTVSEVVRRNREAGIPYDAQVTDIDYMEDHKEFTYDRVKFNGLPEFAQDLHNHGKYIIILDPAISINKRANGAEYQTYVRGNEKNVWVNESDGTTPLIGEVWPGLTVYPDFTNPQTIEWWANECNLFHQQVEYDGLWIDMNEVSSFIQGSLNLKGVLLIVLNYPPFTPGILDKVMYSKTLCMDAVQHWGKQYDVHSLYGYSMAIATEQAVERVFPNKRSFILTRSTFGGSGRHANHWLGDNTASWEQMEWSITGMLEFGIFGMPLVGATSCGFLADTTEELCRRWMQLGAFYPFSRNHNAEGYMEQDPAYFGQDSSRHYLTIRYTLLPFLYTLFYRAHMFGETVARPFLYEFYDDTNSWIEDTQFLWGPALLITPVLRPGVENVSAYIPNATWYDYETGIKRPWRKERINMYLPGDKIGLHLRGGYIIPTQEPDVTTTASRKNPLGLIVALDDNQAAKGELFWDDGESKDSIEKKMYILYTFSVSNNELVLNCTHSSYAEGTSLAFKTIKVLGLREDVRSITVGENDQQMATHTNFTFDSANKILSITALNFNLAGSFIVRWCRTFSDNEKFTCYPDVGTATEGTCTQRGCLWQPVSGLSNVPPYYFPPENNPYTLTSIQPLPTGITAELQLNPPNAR
T1 sequence (P23739 1014-1841 limits assumed): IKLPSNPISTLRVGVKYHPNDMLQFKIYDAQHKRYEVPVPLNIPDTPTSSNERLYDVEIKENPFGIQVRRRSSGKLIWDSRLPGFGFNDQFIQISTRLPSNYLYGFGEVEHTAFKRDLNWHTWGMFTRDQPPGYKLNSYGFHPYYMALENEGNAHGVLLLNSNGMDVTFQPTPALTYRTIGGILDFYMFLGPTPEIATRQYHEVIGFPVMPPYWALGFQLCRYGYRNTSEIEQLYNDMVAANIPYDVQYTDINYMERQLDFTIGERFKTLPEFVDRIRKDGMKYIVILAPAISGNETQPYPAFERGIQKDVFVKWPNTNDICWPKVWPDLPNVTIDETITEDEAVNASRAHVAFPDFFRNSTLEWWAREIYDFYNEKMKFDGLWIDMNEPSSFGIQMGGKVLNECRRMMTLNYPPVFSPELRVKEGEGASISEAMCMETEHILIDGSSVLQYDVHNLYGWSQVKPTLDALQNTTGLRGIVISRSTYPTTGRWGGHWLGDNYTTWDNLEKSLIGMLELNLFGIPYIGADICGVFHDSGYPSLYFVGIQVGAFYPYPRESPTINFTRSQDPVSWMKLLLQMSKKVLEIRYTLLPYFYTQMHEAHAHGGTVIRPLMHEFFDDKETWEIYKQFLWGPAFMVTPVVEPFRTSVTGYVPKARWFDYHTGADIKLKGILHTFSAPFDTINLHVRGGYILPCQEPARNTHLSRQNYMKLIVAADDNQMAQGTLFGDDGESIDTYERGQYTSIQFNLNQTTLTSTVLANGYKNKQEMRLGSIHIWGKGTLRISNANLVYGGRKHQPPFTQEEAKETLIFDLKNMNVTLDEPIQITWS

[4] = target: T1, Sucrase-isomaltase, intestinal; assay: Competitive inhibition of rat intestinal Sucrase using sucrose as substrate assessed as glucose release after 40 mins by Lineweaver-Burk plot analysis
[5] = target: T1, Sucrase-isomaltase, intestinal; assay: Inhibition of rat intestinal Sucrase using sucrose as substrate assessed as glucose release after 40 mins by glucose oxidase method

Row | IC50 ([1]; read-out: IC50) [µM] | SC50 [2] | Ki [3] [µM] | Ki [4] [µM] | IC50 ([5]; read-out: IC50) [µM] | IC50 [5] | IC50 [1] | Compound
1 | 22.6 | 1.6 mM | 540 | 1090 | 94.9 |  |  | O=C(CCCCCCC[C@H](O)c1ccccc1)c1c(O)cc(O)cc1O
2 | 529 | 6.76 mM |  |  |  | Not Active |  | O=C1C[C@@H](c2ccccc2)Oc2c1c(O)cc(O)c2[C@@H]1O[C@H](CO)[C@@H](O)[C@H](O)[C@H]1O
3 | 5.65 | 0.43 mM | 380 | 3070 | 47.4 |  |  | O=C(CCCCCCC[C@H](O)c1ccccc1)c1c(O)cc(O)c(C(CCc2ccccc2)c2ccc(O)cc2O)c1O (stereo partly drawn)
4 |  | 2.45 mM |  |  |  | Not Active | Not Active | O=C1O[C@H]([C@@H](O)CO)C(O)=C1O [ASCORBIC ACID]
5 | 103 | Not Active |  |  |  |  |  | C[C@H]1O[C@H](O[C@H]2[C@H](O)[C@@H](O)[C@@H](O[C@H]3[C@H](O)[C@@H](O)C(O)O[C@@H]3CO)O[C@@H]2CO)[C@H](O)[C@@H](O)[C@@H]1N[C@H]1C=C(CO)[C@@H](O)[C@H](O)[C@H]1O (stereo partly drawn) [ACARBOSE]
